Laboratory results as given in article PMC4854315, “Discovery of a novel allosteric inhibitor-binding site in ERK5: comparison with the canonical kinase hinge ATP-binding site” (Acta Crystallographica. Section D, Structural Biology, 2016).

Key:
Experiment in all cases: Z'-LYTE kinase panel
Type in all cases: biochemical
MINK1 = biological target: T1, MINK1 (Homo sapiens, UniProt Q8N4C8)
T1 construct: purchased ThermoFisher (SelectScreen, Z'-LYTE)
Summary of the method: (§1)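 Readout is percentage inhibition, obtained from the standard Z′-LYTE protocol with test compound present at 10 µM; screened within a panel of 225 kinases.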

SGK2 = biological target: T2, SGK2 (Homo sapiens, UniProt Q9HBY8)
T2 construct: purchased ThermoFisher (SelectScreen, Z'-LYTE)
T2 sequence (Q9HBY8 1-367): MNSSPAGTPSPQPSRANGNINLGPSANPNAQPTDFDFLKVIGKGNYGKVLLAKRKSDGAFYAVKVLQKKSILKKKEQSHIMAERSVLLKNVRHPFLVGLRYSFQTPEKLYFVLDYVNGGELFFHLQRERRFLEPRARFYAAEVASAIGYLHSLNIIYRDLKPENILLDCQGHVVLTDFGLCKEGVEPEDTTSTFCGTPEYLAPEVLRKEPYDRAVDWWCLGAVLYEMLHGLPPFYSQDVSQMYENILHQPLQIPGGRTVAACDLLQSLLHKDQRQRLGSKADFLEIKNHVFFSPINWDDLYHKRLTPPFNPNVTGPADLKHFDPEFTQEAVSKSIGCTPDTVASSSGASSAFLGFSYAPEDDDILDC
Summary of the method: as §1

SRPK2 = biological target: T3, SRPK2 (Homo sapiens, UniProt P78362)
T3 construct: purchased ThermoFisher (SelectScreen, Z'-LYTE)
Summary of the method: as §1

ALK = biological target: T4, ALK (Homo sapiens, UniProt Q9UM73)
T4 construct: purchased ThermoFisher (SelectScreen, Z'-LYTE)
Summary of the method: as §1

RPS6KA5 (MSK1) = biological target: T5, RPS6KA5 (MSK1) (Homo sapiens, UniProt O75582)
T5 construct: purchased ThermoFisher (SelectScreen, Z'-LYTE)
Summary of the method: as §1

HIPK4 = biological target: T6, HIPK4 (Homo sapiens, UniProt Q8NE63)
T6 construct: purchased ThermoFisher (SelectScreen, Z'-LYTE)
T6 sequence (Q8NE63 1-616): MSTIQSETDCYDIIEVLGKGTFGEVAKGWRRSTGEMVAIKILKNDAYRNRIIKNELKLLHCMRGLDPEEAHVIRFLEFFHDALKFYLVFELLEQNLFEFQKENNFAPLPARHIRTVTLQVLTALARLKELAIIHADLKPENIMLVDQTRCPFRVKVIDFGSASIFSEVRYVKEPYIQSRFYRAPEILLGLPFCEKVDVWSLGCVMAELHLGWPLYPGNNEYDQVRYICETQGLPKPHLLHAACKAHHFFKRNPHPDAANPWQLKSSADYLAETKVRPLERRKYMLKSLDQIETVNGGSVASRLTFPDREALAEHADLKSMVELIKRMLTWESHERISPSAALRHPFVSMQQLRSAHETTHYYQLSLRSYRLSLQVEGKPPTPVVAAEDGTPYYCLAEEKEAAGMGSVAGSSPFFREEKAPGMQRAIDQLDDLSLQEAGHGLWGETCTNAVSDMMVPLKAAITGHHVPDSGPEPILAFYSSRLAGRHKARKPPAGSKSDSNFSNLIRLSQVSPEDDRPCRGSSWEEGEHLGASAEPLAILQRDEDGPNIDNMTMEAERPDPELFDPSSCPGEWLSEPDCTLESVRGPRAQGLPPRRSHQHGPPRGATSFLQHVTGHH
Summary of the method: as §1

AURKC (Aurora C) = biological target: T7, AURKC (Aurora C) (Homo sapiens, UniProt Q9UQB9)
T7 construct: purchased ThermoFisher (SelectScreen, Z'-LYTE)
T7 sequence (Q9UQB9 1-309): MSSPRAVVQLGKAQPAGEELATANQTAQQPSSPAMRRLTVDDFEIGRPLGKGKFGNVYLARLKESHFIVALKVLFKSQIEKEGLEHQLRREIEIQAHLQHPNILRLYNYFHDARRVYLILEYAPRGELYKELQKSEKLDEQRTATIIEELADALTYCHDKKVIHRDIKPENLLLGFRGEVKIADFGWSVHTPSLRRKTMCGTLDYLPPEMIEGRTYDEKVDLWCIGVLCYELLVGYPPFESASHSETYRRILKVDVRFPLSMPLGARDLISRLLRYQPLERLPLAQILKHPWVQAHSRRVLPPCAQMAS
Summary of the method: as §1

SRMS (Srm) = biological target: T8, SRMS (Srm) (Homo sapiens, UniProt Q9H3Y6)
T8 construct: purchased ThermoFisher (SelectScreen, Z'-LYTE)
Summary of the method: as §1

MAPK3 (ERK1) = biological target: T9, MAPK3 (ERK1) (Homo sapiens, UniProt P27361)
T9 construct: purchased ThermoFisher (SelectScreen, Z'-LYTE)
Summary of the method: as §1

AMPK A2/B1/G1 = biological target: T10, AMPK A2/B1/G1 (Homo sapiens, UniProt P54646)
T10 construct: purchased ThermoFisher (SelectScreen, Z'-LYTE)
Summary of the method: as §1

STK22B (TSSK2) = biological target: T11, STK22B (TSSK2) (Homo sapiens, UniProt Q96PF2)
T11 construct: purchased ThermoFisher (SelectScreen, Z'-LYTE)
T11 sequence (Q96PF2 1-358): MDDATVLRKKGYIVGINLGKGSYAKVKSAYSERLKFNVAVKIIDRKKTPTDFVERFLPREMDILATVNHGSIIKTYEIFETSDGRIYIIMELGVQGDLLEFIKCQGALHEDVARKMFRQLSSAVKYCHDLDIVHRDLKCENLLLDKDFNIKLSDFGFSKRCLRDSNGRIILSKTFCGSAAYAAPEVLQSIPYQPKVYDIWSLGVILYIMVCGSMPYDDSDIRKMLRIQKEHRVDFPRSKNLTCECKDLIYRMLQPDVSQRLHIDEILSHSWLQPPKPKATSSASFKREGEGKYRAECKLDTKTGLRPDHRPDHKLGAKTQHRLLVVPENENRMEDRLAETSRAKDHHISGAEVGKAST
Summary of the method: as §1

CSNK1G1 (CK1 gamma 1) = biological target: T12, CSNK1G1 (CK1 gamma 1) (Homo sapiens, UniProt Q9HCP0)
T12 construct: purchased ThermoFisher (SelectScreen, Z'-LYTE)
Summary of the method: as §1

T1 sequence (Q8N4C8 whole entry): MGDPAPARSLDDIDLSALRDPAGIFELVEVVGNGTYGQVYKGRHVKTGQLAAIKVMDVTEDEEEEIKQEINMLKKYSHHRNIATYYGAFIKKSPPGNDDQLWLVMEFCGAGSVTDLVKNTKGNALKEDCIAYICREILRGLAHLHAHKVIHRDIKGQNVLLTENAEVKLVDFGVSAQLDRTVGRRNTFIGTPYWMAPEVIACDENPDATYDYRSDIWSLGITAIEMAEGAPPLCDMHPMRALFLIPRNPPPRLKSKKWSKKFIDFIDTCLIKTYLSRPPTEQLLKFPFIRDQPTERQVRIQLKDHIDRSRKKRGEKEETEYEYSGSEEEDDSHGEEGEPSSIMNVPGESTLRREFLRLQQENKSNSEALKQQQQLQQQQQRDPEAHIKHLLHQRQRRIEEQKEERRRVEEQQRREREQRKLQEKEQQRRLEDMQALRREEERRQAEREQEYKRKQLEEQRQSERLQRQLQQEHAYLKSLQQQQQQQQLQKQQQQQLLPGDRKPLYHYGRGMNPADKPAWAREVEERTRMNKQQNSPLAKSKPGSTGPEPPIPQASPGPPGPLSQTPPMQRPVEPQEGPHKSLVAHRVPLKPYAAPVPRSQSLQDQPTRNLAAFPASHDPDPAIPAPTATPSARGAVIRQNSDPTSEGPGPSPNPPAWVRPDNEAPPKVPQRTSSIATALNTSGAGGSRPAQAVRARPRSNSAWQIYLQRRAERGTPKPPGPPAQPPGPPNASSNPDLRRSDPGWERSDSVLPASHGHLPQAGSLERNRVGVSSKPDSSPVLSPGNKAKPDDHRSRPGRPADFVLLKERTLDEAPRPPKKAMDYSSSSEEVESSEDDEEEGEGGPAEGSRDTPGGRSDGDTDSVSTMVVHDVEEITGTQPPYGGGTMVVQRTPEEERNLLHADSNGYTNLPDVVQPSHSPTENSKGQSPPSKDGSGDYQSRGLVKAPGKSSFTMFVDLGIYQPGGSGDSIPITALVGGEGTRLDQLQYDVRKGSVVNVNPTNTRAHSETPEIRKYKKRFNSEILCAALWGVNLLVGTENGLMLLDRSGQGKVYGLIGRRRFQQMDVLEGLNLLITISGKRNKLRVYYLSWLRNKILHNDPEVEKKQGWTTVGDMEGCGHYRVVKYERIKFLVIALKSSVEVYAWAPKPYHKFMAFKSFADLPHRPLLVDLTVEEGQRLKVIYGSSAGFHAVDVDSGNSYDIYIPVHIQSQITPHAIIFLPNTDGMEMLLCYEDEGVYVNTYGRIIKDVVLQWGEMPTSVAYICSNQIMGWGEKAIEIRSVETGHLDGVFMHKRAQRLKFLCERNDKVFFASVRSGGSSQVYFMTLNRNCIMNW
T3 sequence (P78362 whole entry): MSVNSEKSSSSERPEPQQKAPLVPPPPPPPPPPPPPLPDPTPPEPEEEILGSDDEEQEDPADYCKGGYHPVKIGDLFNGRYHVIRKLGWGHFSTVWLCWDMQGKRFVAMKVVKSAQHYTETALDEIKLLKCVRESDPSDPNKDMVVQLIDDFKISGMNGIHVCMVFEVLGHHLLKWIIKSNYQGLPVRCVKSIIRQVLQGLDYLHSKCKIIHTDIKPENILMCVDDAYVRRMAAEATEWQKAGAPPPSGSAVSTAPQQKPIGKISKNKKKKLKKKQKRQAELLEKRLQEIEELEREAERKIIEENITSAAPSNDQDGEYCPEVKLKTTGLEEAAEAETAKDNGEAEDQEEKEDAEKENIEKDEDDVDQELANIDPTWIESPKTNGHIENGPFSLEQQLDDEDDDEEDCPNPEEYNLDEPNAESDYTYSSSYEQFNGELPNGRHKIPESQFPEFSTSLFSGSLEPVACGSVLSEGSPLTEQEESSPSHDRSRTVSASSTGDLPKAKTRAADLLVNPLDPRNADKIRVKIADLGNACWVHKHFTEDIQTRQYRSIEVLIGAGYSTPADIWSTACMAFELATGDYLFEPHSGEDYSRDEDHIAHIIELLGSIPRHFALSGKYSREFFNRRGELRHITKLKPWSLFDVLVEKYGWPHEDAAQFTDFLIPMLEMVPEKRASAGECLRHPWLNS
T10 sequence (P54646 whole entry): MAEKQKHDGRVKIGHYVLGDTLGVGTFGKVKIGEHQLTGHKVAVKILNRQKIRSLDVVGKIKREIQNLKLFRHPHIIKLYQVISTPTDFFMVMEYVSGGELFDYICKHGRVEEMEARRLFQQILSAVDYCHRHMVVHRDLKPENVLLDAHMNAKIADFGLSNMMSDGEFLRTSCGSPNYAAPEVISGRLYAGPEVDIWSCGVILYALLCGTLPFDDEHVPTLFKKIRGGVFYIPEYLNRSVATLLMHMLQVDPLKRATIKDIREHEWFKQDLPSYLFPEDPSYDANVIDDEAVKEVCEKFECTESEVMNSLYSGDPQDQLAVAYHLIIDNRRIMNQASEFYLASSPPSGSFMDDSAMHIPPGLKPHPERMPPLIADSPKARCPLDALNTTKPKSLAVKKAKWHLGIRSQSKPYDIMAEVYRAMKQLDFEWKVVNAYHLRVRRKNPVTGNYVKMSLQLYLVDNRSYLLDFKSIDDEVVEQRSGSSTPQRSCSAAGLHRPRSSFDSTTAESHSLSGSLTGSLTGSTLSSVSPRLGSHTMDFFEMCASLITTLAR
T10 sequence (Q9Y478 whole entry partner): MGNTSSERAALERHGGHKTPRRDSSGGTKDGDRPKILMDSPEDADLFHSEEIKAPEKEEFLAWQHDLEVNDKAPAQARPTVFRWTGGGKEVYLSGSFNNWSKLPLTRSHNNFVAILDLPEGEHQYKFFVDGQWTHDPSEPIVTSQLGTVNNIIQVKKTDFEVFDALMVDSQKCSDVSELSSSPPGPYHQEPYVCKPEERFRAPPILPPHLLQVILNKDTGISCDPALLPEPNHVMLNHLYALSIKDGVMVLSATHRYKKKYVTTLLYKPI
T10 sequence (P54619 whole entry partner): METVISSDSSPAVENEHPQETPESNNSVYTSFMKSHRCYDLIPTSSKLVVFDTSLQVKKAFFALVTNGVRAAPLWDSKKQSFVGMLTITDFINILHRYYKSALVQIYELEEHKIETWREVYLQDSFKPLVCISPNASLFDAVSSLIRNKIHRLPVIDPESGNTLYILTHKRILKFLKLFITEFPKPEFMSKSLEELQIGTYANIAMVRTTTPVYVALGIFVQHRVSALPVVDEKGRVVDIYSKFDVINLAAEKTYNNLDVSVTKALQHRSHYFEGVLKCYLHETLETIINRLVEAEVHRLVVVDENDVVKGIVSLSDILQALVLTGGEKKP
T4 sequence (Q9UM73 19-1620): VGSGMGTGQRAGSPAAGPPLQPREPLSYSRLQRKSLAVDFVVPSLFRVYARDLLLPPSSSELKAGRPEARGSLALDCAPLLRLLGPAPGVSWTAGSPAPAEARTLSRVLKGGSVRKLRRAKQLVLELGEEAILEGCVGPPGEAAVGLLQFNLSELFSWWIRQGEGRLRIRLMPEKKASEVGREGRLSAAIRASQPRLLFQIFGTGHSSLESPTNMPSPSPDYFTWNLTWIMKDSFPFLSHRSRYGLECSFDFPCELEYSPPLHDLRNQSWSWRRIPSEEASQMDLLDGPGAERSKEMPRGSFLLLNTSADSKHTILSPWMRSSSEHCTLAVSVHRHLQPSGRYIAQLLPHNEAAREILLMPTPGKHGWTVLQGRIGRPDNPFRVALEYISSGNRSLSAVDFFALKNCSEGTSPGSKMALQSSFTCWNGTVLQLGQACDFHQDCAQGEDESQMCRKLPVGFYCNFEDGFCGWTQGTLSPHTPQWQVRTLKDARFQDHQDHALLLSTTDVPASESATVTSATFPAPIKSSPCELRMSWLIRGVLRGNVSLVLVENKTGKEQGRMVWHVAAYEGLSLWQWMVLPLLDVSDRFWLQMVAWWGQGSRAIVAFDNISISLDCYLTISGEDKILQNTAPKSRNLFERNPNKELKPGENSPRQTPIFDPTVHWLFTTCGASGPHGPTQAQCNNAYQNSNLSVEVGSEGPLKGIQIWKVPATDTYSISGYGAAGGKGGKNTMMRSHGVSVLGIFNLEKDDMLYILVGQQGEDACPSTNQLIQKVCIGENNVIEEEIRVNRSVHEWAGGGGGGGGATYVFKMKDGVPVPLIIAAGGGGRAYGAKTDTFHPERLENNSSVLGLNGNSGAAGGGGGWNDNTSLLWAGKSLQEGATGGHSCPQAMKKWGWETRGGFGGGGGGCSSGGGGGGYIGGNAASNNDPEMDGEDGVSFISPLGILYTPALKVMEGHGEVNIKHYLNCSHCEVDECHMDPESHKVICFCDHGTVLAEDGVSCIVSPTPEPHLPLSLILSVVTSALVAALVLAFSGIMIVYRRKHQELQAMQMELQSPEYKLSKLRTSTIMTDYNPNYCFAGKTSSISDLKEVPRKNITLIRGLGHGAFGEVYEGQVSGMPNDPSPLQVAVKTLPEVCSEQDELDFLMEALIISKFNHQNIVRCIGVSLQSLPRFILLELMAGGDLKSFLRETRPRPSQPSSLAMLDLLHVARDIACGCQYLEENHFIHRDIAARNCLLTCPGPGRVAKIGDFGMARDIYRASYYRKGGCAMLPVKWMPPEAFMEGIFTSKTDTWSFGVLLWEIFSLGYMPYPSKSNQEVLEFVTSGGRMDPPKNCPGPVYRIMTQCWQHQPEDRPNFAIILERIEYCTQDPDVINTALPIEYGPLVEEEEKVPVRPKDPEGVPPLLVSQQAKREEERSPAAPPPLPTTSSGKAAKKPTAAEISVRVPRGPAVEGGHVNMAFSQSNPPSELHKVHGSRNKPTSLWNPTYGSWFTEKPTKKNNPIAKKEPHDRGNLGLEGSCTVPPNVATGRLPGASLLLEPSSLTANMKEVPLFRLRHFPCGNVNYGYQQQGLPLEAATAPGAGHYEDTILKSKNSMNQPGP

With `Cc1ncc(-c2nc(Nc3ccc(C(=O)NCCN4CCCCC4)cc3)ncc2F)n1C(C)C` [Compound 3] the inhibition at 10 µM (MINK1) was 88%, the inhibition at 10 µM (SGK2) was 66% and the inhibition at 10 µM (SRPK2) was 25%. It also gave an inhibition at 10 µM (ALK) of 78%, an inhibition at 10 µM (RPS6KA5 (MSK1)) of 86% and an inhibition at 10 µM (HIPK4) of 92%. The inhibition at 10 µM (AURKC (Aurora C)) was 89%, the inhibition at 10 µM (SRMS (Srm)) was 20% and the inhibition at 10 µM (MAPK3 (ERK1)) was 40%. It also gave an inhibition at 10 µM (AMPK A2/B1/G1) of 94%, an inhibition at 10 µM (STK22B (TSSK2)) of -7% and an inhibition at 10 µM (CSNK1G1 (CK1 gamma 1)) of 70%.

Work on `Cc1cc(Nc2nc(N)nn2C(=O)NC(C)C)ccc1Cl` [Compound 5] yielded an inhibition at 10 µM (MINK1) of 21%, an inhibition at 10 µM (SGK2) of -20% and an inhibition at 10 µM (SRPK2) of -5%. For the same molecule, the inhibition at 10 µM (ALK) was 20%, the inhibition at 10 µM (RPS6KA5 (MSK1)) was 6.35% and the inhibition at 10 µM (HIPK4) was 19%. It also gave an inhibition at 10 µM (AURKC (Aurora C)) of 54%, an inhibition at 10 µM (SRMS (Srm)) of 2.26% and an inhibition at 10 µM (MAPK3 (ERK1)) of 7%. For the same molecule, the inhibition at 10 µM (AMPK A2/B1/G1) was 29%, the inhibition at 10 µM (STK22B (TSSK2)) was -10% and the inhibition at 10 µM (CSNK1G1 (CK1 gamma 1)) was 8%.

For “XMD8-92 [Compound 2, reference compound]”, the “MINK1 % Inhibition” value (MINK1; 10 µM compound, ATP Km app) was 66%, the “SGK2 % Inhibition” value (SGK2; 10 µM compound, ATP Km app) was 68% and the “SRPK2 % Inhibition” value (SRPK2; 10 µM compound, ATP Km app) was -19%. For the same molecule, the “ALK % Inhibition” value (ALK; 10 µM compound, ATP Km app) was 16%, the “RPS6KA5 (MSK1) % Inhibition” value (RPS6KA5 (MSK1); 10 µM compound, ATP Km app) was 47% and the “HIPK4 % Inhibition” value (HIPK4; 10 µM compound, ATP Km app) was 10%. For the same molecule, the “AURKC (Aurora C) % Inhibition” value (AURKC (Aurora C); 10 µM compound, ATP Km app) was 34%, the “SRMS (Srm) % Inhibition” value (SRMS (Srm); 10 µM compound, ATP Km app) was 21% and the “MAPK3 (ERK1) % Inhibition” value (MAPK3 (ERK1); 10 µM compound, ATP Km app) was 8%. The “AMPK A2/B1/G1 % Inhibition” value (AMPK A2/B1/G1; 10 µM compound, ATP Km app) was 58%, the “STK22B (TSSK2) % Inhibition” value (STK22B (TSSK2); 10 µM compound, ATP Km app) was -0.837% and the “CSNK1G1 (CK1 gamma 1) % Inhibition” value (CSNK1G1 (CK1 gamma 1); 10 µM compound, ATP Km app) was 24%.
